Results from patent publication US20160175302A1 (AB SCIENCE, priority 2014, published 2016).

What was measured:
[1] = tested on: Gastric cancer cell line HGC-27; assay: Colorimetric cell proliferation and viability assay (CellTiter-Blue), HGC-27; conditions: Homo sapiens, HGC-27, 72 h, read-out: IC50, agent alone
[2] = tested on: Gastric cancer cell line AGS; assay: Colorimetric cell proliferation and viability assay (CellTiter-Blue), AGS; conditions: 72 h, read-out: IC50, agent alone
[3] = clinically achievable concentrations, plasma; read-out: Cmax (reported / approximate, measured in plasma); cited from earlier work

SMILES	IC50 [1] [µM]	IC50 [2] [µM]	Cmax [3] [µM]
CC[C@]1(O)C[C@H]2CN(CCc3c([nH]c4ccccc34)[C@@](C(=O)OC)(c3cc4c(cc3OC)N(C=O)[C@H]3[C@@](O)(C(=O)OC)[C@H](OC(C)=O)[C@]5(CC)C=CCN6CC[C@]43[C@@H]65)C2)C1 [Vincristin]	0.1 to 1	> 1	–
Cc1ccc(NC(=O)c2ccc(CN3CCN(C)CC3)cc2)cc1Nc1nc(-c2cccnc2)cs1 [masitinib, 4-(4-methylpiperazin-1-ylmethyl)-N-[4-methyl-3-(4-pyridin-3ylthiazol-2-ylamino)phenyl]benzamide]	5 to 10	5 to 10	–
COc1cc([C@@H]2c3cc4c(cc3[C@@H](O[C@@H]3O[C@@H]5CO[C@@H](C)O[C@H]5[C@H](O)[C@H]3O)[C@H]3COC(=O)[C@H]23)OCO4)cc(OC)c1O [Etoposide]	20	10	~34
O=c1[nH]cc(F)c(=O)[nH]1 [5-FU, 5-fluorouracil]	1000	100	60 to 200
CCc1c2c(nc3ccc(OC(=O)N4CCC(N5CCCCC5)CC4)cc13)-c1cc3c(c(=O)n1C2)COC(=O)[C@]3(O)CC [Irinotecan]	> 100	20	1 to 10
